Laboratory results: patent publication US6489469B1, “Method for storing or transporting erythritol solution” (Nikken Chemicals Co., Ltd., priority 1999, dated 2002)

Tested on: Bacillus stearothermophilus IFO 12550
Assay: Viable Count of Bacillus stearothermophilus IFO 12550 in Erythritol Solution (heat resistant bacteria)
Assay type: cell-based
Description: Erythritol solutions of respective concentrations in the range of from 30 to 70% were prepared. To these was inoculated Bacillus stearothermophilus IFO 12550 as a heat resistant bacterium in a population (concentration) of 10,000 cells/mL or more.
After the inoculation, the solutions were stored at 50, 60 or 75° C., respectively, for 56 days and the number of viable cell was determined daily. The determination of the number of viable cell was performed by in the same manner as in Example 1.

OC[C@@H](O)[C@@H](O)CO [Erythritol Solution, erythritol]
The Number of Viable Cell (50° C., 30% w/w, Day 0): 10000 or more cells/mL
The Number of Viable Cell (50° C., 30% w/w, Day 3): 70 cells/mL
The Number of Viable Cell (50° C., 30% w/w, Day 7): 60 cells/mL
The Number of Viable Cell (50° C., 30% w/w, Day 14): 40 cells/mL
The Number of Viable Cell (50° C., 30% w/w, Day 28): 60 cells/mL
The Number of Viable Cell (50° C., 30% w/w, Day 56): 50 cells/mL
The Number of Viable Cell (50° C., 40% w/w, Day 0): 10000 or more cells/mL
The Number of Viable Cell (50° C., 40% w/w, Day 3): 40 cells/mL
The Number of Viable Cell (50° C., 40% w/w, Day 7): 50 cells/mL
The Number of Viable Cell (50° C., 40% w/w, Day 14): 50 cells/mL
The Number of Viable Cell (50° C., 40% w/w, Day 28): 50 cells/mL
The Number of Viable Cell (50° C., 40% w/w, Day 56): 60 cells/mL
The Number of Viable Cell (50° C., 50% w/w, Day 0): 10000 or more cells/mL
The Number of Viable Cell (50° C., 50% w/w, Day 3): 100 cells/mL
The Number of Viable Cell (50° C., 50% w/w, Day 7): 100 cells/mL
The Number of Viable Cell (50° C., 50% w/w, Day 14): 50 cells/mL
The Number of Viable Cell (50° C., 50% w/w, Day 28): 70 cells/mL
The Number of Viable Cell (50° C., 50% w/w, Day 56): 120 cells/mL
The Number of Viable Cell (60° C., 30% w/w, Day 0): 10000 or more cells/mL
The Number of Viable Cell (60° C., 30% w/w, Day 3): 90 cells/mL
The Number of Viable Cell (60° C., 30% w/w, Day 7): 60 cells/mL
The Number of Viable Cell (60° C., 30% w/w, Day 14): 90 cells/mL
The Number of Viable Cell (60° C., 30% w/w, Day 28): 300 cells/mL
The Number of Viable Cell (60° C., 30% w/w, Day 56): 0 cells/mL
The Number of Viable Cell (60° C., 40% w/w, Day 0): 10000 or more cells/mL
The Number of Viable Cell (60° C., 40% w/w, Day 3): 60 cells/mL
The Number of Viable Cell (60° C., 40% w/w, Day 7): 70 cells/mL
The Number of Viable Cell (60° C., 40% w/w, Day 14): 200 cells/mL
The Number of Viable Cell (60° C., 40% w/w, Day 28): 320 cells/mL
The Number of Viable Cell (60° C., 40% w/w, Day 56): 0 cells/mL
The Number of Viable Cell (60° C., 50% w/w, Day 0): 10000 or more cells/mL
The Number of Viable Cell (60° C., 50% w/w, Day 3): 100 cells/mL
The Number of Viable Cell (60° C., 50% w/w, Day 7): 150 cells/mL
The Number of Viable Cell (60° C., 50% w/w, Day 14): 200 cells/mL
The Number of Viable Cell (60° C., 50% w/w, Day 28): 330 cells/mL
The Number of Viable Cell (60° C., 50% w/w, Day 56): 0 cells/mL
The Number of Viable Cell (60° C., 60% w/w, Day 0): 10000 or more cells/mL
The Number of Viable Cell (60° C., 60% w/w, Day 3): 130 cells/mL
The Number of Viable Cell (60° C., 60% w/w, Day 7): 100 cells/mL
The Number of Viable Cell (60° C., 60% w/w, Day 14): 150 cells/mL
The Number of Viable Cell (60° C., 60% w/w, Day 28): 120 cells/mL
The Number of Viable Cell (60° C., 60% w/w, Day 56): 0 cells/mL
time after which all the cells died (75° C.): 14 days
The Number of Viable Cell (75° C., 30% w/w, Day 0): 10000 or more cells/mL
The Number of Viable Cell (75° C., 30% w/w, Day 3): 350 cells/mL
The Number of Viable Cell (75° C., 30% w/w, Day 7): 340 cells/mL
The Number of Viable Cell (75° C., 30% w/w, Day 14): 0 cells/mL
The Number of Viable Cell (75° C., 30% w/w, Day 28): 0 cells/mL
The Number of Viable Cell (75° C., 30% w/w, Day 56): 0 cells/mL
The Number of Viable Cell (75° C., 40% w/w, Day 0): 10000 or more cells/mL
The Number of Viable Cell (75° C., 40% w/w, Day 3): 330 cells/mL
The Number of Viable Cell (75° C., 40% w/w, Day 7): 490 cells/mL
The Number of Viable Cell (75° C., 40% w/w, Day 14): 0 cells/mL
The Number of Viable Cell (75° C., 40% w/w, Day 28): 0 cells/mL
The Number of Viable Cell (75° C., 40% w/w, Day 56): 0 cells/mL
The Number of Viable Cell (75° C., 50% w/w, Day 0): 10000 or more cells/mL
The Number of Viable Cell (75° C., 50% w/w, Day 3): 220 cells/mL
The Number of Viable Cell (75° C., 50% w/w, Day 7): 590 cells/mL
The Number of Viable Cell (75° C., 50% w/w, Day 14): 0 cells/mL
The Number of Viable Cell (75° C., 50% w/w, Day 28): 0 cells/mL
The Number of Viable Cell (75° C., 50% w/w, Day 56): 0 cells/mL
The Number of Viable Cell (75° C., 60% w/w, Day 0): 10000 or more cells/mL
The Number of Viable Cell (75° C., 60% w/w, Day 3): 170 cells/mL
The Number of Viable Cell (75° C., 60% w/w, Day 7): 480 cells/mL
The Number of Viable Cell (75° C., 60% w/w, Day 14): 0 cells/mL
The Number of Viable Cell (75° C., 60% w/w, Day 28): 0 cells/mL
The Number of Viable Cell (75° C., 60% w/w, Day 56): 0 cells/mL
The Number of Viable Cell (75° C., 70% w/w, Day 0): 10000 or more cells/mL
The Number of Viable Cell (75° C., 70% w/w, Day 3): 140 cells/mL
The Number of Viable Cell (75° C., 70% w/w, Day 7): 210 cells/mL
The Number of Viable Cell (75° C., 70% w/w, Day 14): 0 cells/mL
The Number of Viable Cell (75° C., 70% w/w, Day 28): 0 cells/mL
The Number of Viable Cell (75° C., 70% w/w, Day 56): 0 cells/mL
growth of the bacteria (all the concentrations, temperature of 50° C. or more): inhibited
